Data: patent publication US20240091228A1, “Uridine Phosphorylase Inhibitors to Prevent or Treat Drug-Induced Pulmonary Dysfunction” (Tosk, Inc., priority 2021, published 2024)

How the values were obtained:
[1] = test system: bleomycin-induced pulmonary fibrosis; test: bleomycin-induced pulmonary fibrosis study in mice, lung histology (Masson's trichrome, Ashcroft grading); format: in vivo; settings: for lower fibrosis (histology score) than mice treated with the dosing vehicle / statistical significance of the fibrosis decrease vs dosing vehicle: C57BL/6 male mice, bleomycin OA day 0, 60 mg/kg IP BID days 7 through 20; for statistical significance of the fibrosis decrease vs dosing vehicle: SPSS
Excerpt: FIG. 2. Figure is a chart providing histology scores for pulmonary tissue from mice treated with bleomycin (a well characterized lung toxin) and either dosing vehicle, uridine, or TK-112690. Thirty-three C57BL/6 male mice, 10-14 weeks old at study initiation, were acclimatized for least 3 days. The mouse has been selected as is referenced in the literature as a representative species of choice for this experimental animal model. During acclimation and throughout the entire study duration, animals were housed within a limited access rodent facility and kept in groups of a maximum of 4 mice per cage. Mice were housed in polypropylene cages with solid bottoms and wood shavings or corn cobb as bedding material. Animals were provided ad libitum with a commercial rodent diet and had free access to drinking water that is supplied to each cage via polyethylene bottles. The automatically controlled environmental conditions was set to maintain temperature at 20-26° C. with a relative humidity (RH) of 30-70%, a 12:12 hour light: dark cycle, and 10-15 air changes/hour in the study room. Animals were given a unique animal identification tail mark as a means of identification. This number also appeared on a cage card, which was visible on the front of each cage. The cage card also contained the study and group numbers, route of administration, gender, study director, and arrival date.
Animals were randomly assigned to cages upon arrival. Animals were assigned to treatment groups prior to treatment initiation. At study termination, surviving animals were weighed prior to euthanasia. Euthanasia was performed via anesthesia overdose and exsanguination.
The Table below lists the experimental group(s) comprising the study.
Disease Induction. 75 uL of Bleomycin (section 4.5.) was administered on day 0 via oropharyngeal aspiration (OA). The mice were anesthetized via isoflurane/oxygen and suspended by their cranial incisors on a thin wire from an angled stand. The tongue was gently held from the mouth using blunt forceps to visualize the base of the tongue and the pharynx. Bleomycin/saline suspension was pipetted onto posterior pharynx. Nostrils were held gently closed, Respiration was monitored to ensure the suspension is fully aspirated.
Treatment. Groups 3 and 4 were treated via intraperitoneal (IP) injection at a dosing volume of 10 ml/kg twice daily, 6-8 hours between doses, from days 7 through 20.
Observations and Examinations. Clinical signs, humane endpoints, and palliative care were monitored, as follows: changes in skin, fur, eyes, mucus membranes, occurrence of secretions and excretions, autonomic activity, gait, posture, response to handling, abnormal behavior, tremors, convulsions, sleep and coma, labored breathing, and adventitious lung sounds.
The bleomycin administration induced a severe pulmonary inflammation resulting in lethargy, dehydration, and death of diseased animals. Animals in all diseased groups were given fresh diet gel daily beginning on Day 7 and through the remainder of the study. Body weight measurements were performed 3× weekly starting on Day 0 and throughout the rest of the study.
Termination: BALF and tissue collection. Animals were euthanized via isoflurane overdose. Following euthanasia an angiocatheter was inserted into the trachea. […]
Histology. […] Disease severity and collagen levels were assessed by the Ashcroft fibrosis grading system.
The resulting data were analyzed by SPSS, version 20.

[2] = test system: plasma uridine; test: plasma uridine vs plasma Compound 1 concentration after continuous sc osmotic-pump infusion to mice; format: in vivo; settings: BDF-1 male mice, constant-rate sc infusion 667, 833 or 3000 mg/kg/day
Experimental: Because uridine is cleared so rapidly, with an elimination half-life (t1/2) only a few minutes,^13 and the elimination t1/2 of Compound 1 in mice is only 1-2 hours, it is very challenging to measure uridine concentrations elevations post discrete doses of Compound I, such as used for ip dosing. For this reason, continuous infusion of Compound 1 (TK-112690) to BDF-1 t mice was administered via sc implanted osmotic pumps, and the uridine plasma concentration was measured. Solutions of Compound 1 were prepared at a concentration of 500 mg/mL in sterile PBS. Osmotic pumps (ALZET® micro-osmotic pump 2001D and 1003D, Alza Co) were loaded with 200 μL. (2001D osmotic pump) and/or 100 μL (1003D osmotic pump) of Compound 1 solution.
BDF-1 male mice (n=6) were treated with a constant-rate infusion of 667, 833 or 3000 mg/kg/day doses of Compound 1 delivered via subcutaneously implanted osmotic pumps. Animals were anesthetized with 100 mg/kg ketamine prior to pump implantation. Surgical scissors were used to make an approximately 1 cm incision on the dorsal surface near the shoulder blade of animals. A hemostat was used to carve out a subcutaneous tunnel toward the anterior end of animal. Osmotic pumps were placed inside the subcutaneous tunnel. Incision was sealed with wound clips.
Blood collections were performed on animals anesthetized with ketamine (ip 100 mg/kg). Blood samples from animals treated with a constant-rate infusion of TK-112690 were collected at 72 hours for 667 mg/kg/day and 833 mg/kg/day, and 24 hours for 3000 mg/kg/day after pump implantation. Whole blood (˜0.8 mL) was drawn through the retro-orbital sinus using a heparin coated micro-hematocrit tubes and collected into EDTA microtainer tubes. Blood samples were transferred into fresh 1.5 mL microcentrifuge tubes and centrifuged for 10 minutes at 14,000×g using an Eppendorf Minispin Plus stored in a 4° C. refrigerator. Exactly 0.4 mL of plasma was transferred into fresh microcentrifuge tubes containing 2 μL of 10 mM 5-FU and vortexed at highest setting for approximately 5 seconds. […]

[3] = elimination half-life of Compound 1 in mice; settings: mouse, in vivo, read-out: elimination t1/2
[4] = test system: hepatic fibrosis; test: animal model of hepatic fibrosis; format: in vivo; settings: summary statement
[5] = side effects of TK-112690
[6] = test system: chemotherapy-induced mucositis; test: mitigation of chemotherapy-induced mucositis; settings: in vivo
[7] = test system: UPase; settings: cited from earlier work
[8] = in vivo; cited from earlier work

Cc1cn2c(nc1=O)O[C@H]1[C@H](O)[C@@H](CO)O[C@H]12 [TK-112690]
lower fibrosis (histology score) than mice treated with the dosing vehicle [1]: 30% | statistical significance of the fibrosis decrease vs dosing vehicle [1]: statistically significant | protection in bleomycin-induced animal model of pulmonary fibrosis ([1]; summary statement): protects | effect on plasma uridine [2]: elevate plasma uridine in a linear fashion | intercept of regression line, plasma uridine concentration vs plasma Compound 1 concentration [2]: 0.051 | slope of regression line, plasma uridine concentration vs plasma Compound 1 concentration [2]: 0.010 | half-life [3]: 1 to 2 h | protection in animal model of hepatic fibrosis [4]: protects | side effects [5]: no known side effects | efficacy as an agent to mitigate chemotherapy-induced mucositis [6]: proven efficacy | UPase inhibitor [7]: authentic UPase inhibitor

O=c1ccn([C@@H]2O[C@H](CO)[C@@H](O)[C@H]2O)c(=O)[nH]1 [uridine]
lower fibrosis (histology score) than mice treated with the dosing vehicle [1]: 7% | statistical significance of the fibrosis decrease vs dosing vehicle [1]: not statistically significant | elimination half-life (t1/2) [8]: a few minutes
